Results: patent US20250326799A1, “AGENTS INDUCING VASCULARISATION” (Coegin Pharma AB, priority 2022, published 2025)

Columns and labels:
[1] = Vessel density, CD31+ positive area; conditions: in vivo
Protocol: Quantified measurement of total length (FIG. 20b), total master segments length (FIG. 20c), total branching length (FIG. 20d) and total segments length (FIG. 20e) were performed to evaluate angiogenesis in vitro (n=7 per group for FIG. 29 b-e). The quantification of vessel density was assessed with CD31+ positive area (FIG. 21a, n=13 per group). Western blot analysis of phosphorylated AKT (pAKT-T308), AKT, phosphorylated ERK1/2 (p-ERK1/2) and ERK1/2 in endothelial cells stimulated with FOL-26 peptides for 48 hours (FIG. 21b). Quantification of phosphorylation intensities normalized to respective total expressions (FIG. 21c-d, n=3 per group).

[2] = tested on: Human umbilical cord endothelial cells (HUVECs); assay: Gene expression by PCR in endothelial cells; format: cell-based
[3] = tested on: human umbilical vascular endothelial cells (HUVECs); assay: ROS level (H2O2 measurement) after oxLDL, HUVECs; format: cell-based; conditions: HUVECs pre-incubated with peptide; 50 ug/ml oxLDL for 2 hours
Protocol: (§1) The impact of FOL-026 peptide on human umbilical vascular endothelial cells (HUVECs) proliferation (FIG. 18a) and apoptosis (FIG. 18c) induced with low-oxygen condition was determined by BrdU uptake (n=8-9 per group) and active caspase-3/-7 (n=7-10 per group) separately. The ROS level (FIG. 18b) activated by 50 ug/ml oxidized Low-density Lipoprotein (oxLDL) for 2 hours in cells pre-incubated with FOL-026 peptides was assessed using H2O2 measurement (n=4-8 per group). Representative pictures of endothelial migration into an in vitro scratch injury were shown (FIG. 19a) and the wound closure rate (FIG. 19b) in HUVECs stimulated with increasing concentration of FOL-026 peptide was quantified by image J software (n=8-9 per group). Scale bar=150 um. Data are presented as means±SEM and acquired from 3 to 4 independent replicate tests. *P<0.05, **P<0.01, ****P<0.0001 by one-way ANOVA and Dunnett's post-hoc test.

[4] = tested on: Human coronary artery smooth cells (HCASMCs); assay: Gene expression by PCR in arterial smooth muscle cells; format: cell-based
Protocol: Cells on 6-well plates were washed with cold DPBS (Gibco, USA) and homogenized in Trizol reagent (Invitrogen, CA, USA). Total RNA was extracted using PureLink RNA Mini Kit (Invitrogen, CA, USA), followed by nucleic acid quantification with NanoDrop 2000c (Thermo Fisher Scientific, USA). To determine mRNA expression of target genes, real-time qPCR was performed using by KAPA SYBR FAST One-Step qRT-PCR Master Mix Kit (KAPA Biosystems, USA) on LightCycler480 system (Roche, Mannheim, Germany). All primers were purchased from miScript Primer Assays (Qiagen, Valencia, CA) and GAPDH mRNA expression of each sample was used for normalization. Cells on 6-well plates were washed with cold DPBS and lysed with the mixture of lysis buffer and protease inhibitors on ice, then centrifuged at 15,000 g for 20 min at 4° C. Supernatant was performed to measure the protein concentration using BCA Protein Assay Kit (Thermo Fisher Scientific, USA). Protein sample was loaded onto SDS-PAGE gels and separated with electrophoresis, followed by transferred to PVDF membranes (Millipore, USA). Membranes were blocked with 5% nonfat milk. Primary antibodies (Abcam, UK) and secondary antibodies were performed to incubate with membranes at 4° C. overnight and at room temperature for 1 hour respectively.

[5] = tested on: human umbilical vascular endothelial cells (HUVECs); assay: Low-oxygen induced apoptosis, active caspase-3/-7, HUVECs; format: cell-based
Protocol: as §1
The efficiency of small interfering RNA transfection for 48 hours in HUVECs was confirmed by qRT-PCR (n=4) (FIG. 22a). […]

In the case of VDTYDGGISVVYGLR [FOL-026], the “vessel density (CD31+ positive area)” value [1] is reported as “increased vessel density”, the VEGFR-2 gene expression ([2]; 10 nM) is reported as “reduced” and the TNF-α gene expression ([2]; 10 nM and 100 nM) is reported as “reduced”. The IL-6 gene expression ([2]; 10 nM, 100 nM, 1000 nM tested) was “no effect”, the MMP3 gene expression ([2]; 10 nM, 100 nM, 1000 nM tested) was “no effect” and the VEGF-A gene expression ([2]; 10 nM, 100 nM, 1000 nM tested) was “no effect”. The c-Met gene expression ([2]; 10 nM, 100 nM, 1000 nM tested) was “reducing”, the NRP-1 gene expression ([2]; 100 nM and 1000 nM) was “inducing” and the MMP2 gene expression ([2]; 200 nM and 1000 nM) was “induced”. For the same sequence, the VEGFR-2 gene expression ([2]; 1000 nM) was “induced”, the NRP-1 gene expression ([2]; lowest dose (10 nM)) was “reducing” and the “ROS levels induced by oxLDL (H2O2 measurement)” value [3] was “reduce the amount of ROS levels”. The c-MET gene expression ([4]; 10 nM and 1000 nM) was “reduced”, the MMP2 gene expression ([4]; 10, 100, and 1000 nM) was “induced” and the NRP-1 gene expression ([4]; 10, 100, and 1000 nM) was “reduced”. The VEGF-A gene expression ([4]; 10, 100, and 1000 nM) was “induced”, the IL-6 gene expression ([4]; 100 and 1000 nM) was “induced” and the MMP3 gene expression ([4]; 100 and 1000 nM) was “induced”. The TNF-α gene expression ([4]; 100 and 1000 nM) was “induced”, the “cell apoptosis at 0.1% oxygen after NRP-1 knock-down (active caspase-3/-7)” value ([5]; HUVECs transfected with siRNA-NC or siNRP-1) was “blocks the effect” and the “low oxygen induced apoptosis (active caspase-3/-7)” value ([5]; HUVECs, low-oxygen condition) was “alleviates the effect of low oxygen induced apoptosis”.
